Article PMC6333442, “Conserved allosteric pathways for activation of TRPV3 revealed through engineering vanilloid-sensitivity” (eLife, 2019)
“And” between values parts separate entries of the source, which are not always exact repeats. Equal entries are not always repeated.

Tests used:
[1] = system: TRPV3 single point mutants (V587L, F625L, F656I and F666Y); details: 2-APB 3 mM, room temperature
Method: All channel constructs were expressed in Xenopus laevis oocytes and studied using the two-electrode voltage clamp technique (TEVC) following 1–4 days of incubation after cRNA injection. The animal care and experimental procedures were performed in accordance with the Guide for the Care and Use of Laboratory Animals and were approved by the Animal Care and Use Committee of the National Institute of Neurological Disorders and Stroke (Animal protocol number 1253–17). Oocytes were removed surgically and incubated with agitation for 1 hr in a solution containing (in mM) 82.5 NaCl, 2.5 KCl, 1 MgCl2, 5 HEPES, pH 7.6 (with NaOH), and collagenase (2 mg/ml; Worthington Biochemical, Lakewood, NJ). […]
For temperature-activation experiments, calcium-activated chloride currents were minimized by using calcium-free solution containing 30 µM Caccinh-A01 and recording at negative membrane voltages. Heat stimuli were achieved by passing the external recording solution through glass capillary spirals immersed in a water bath maintained at about 70°C, and recordings were performed during constant perfusion with temperature measured using a thermistor (TA-29, Warner Instruments) located close to the cell. […] The mean I vs T relations were calculated by automatically binning each of the recordings in temperature intervals of 2°C, and averaging a single data point within each interval per cell. […]

TRPV3-4M/V2P = assay: Two-electrode voltage clamp, TRPV3-4M/V2P chimera in oocytes; assay type: cell-based, mouse; details: RTx 100 nM, 2-APB 3 mM, room temperature, ±60 mV
Method: (§1) All channel constructs were expressed in Xenopus laevis oocytes and studied using the two-electrode voltage clamp technique (TEVC) following 1–4 days of incubation after cRNA injection. The animal care and experimental procedures were performed in accordance with the Guide for the Care and Use of Laboratory Animals and were approved by the Animal Care and Use Committee of the National Institute of Neurological Disorders and Stroke (Animal protocol number 1253–17). Oocytes were removed surgically and incubated with agitation for 1 hr in a solution containing (in mM) 82.5 NaCl, 2.5 KCl, 1 MgCl2, 5 HEPES, pH 7.6 (with NaOH), and collagenase (2 mg/ml; Worthington Biochemical, Lakewood, NJ). Defolliculated oocytes were injected with cRNA for each of the constructs and incubated at 17°C in a solution containing (in mM) 96 NaCl, 2 KCl, 1 MgCl2, 1.8 CaCl2, 5 HEPES, pH 7.6 (with NaOH), and gentamicin (50 μg/ml, GIBCO-BRL, Gaithersburg, MD). Oocyte membrane voltage was controlled using an OC-725C oocyte clamp (Warner Instruments, Hamden, CT). Data were filtered at 1–3 kHz and digitized at 20 kHz using pClamp software (Molecular Devices, Sunnyvale, CA) and a Digidata 1440A digitizer (Axon Instruments). Microelectrode resistances were 0.1–1 MΩ when filled with 3 M KCl. For recording TRP channel currents, the external recording solution contained (in mM) 100 KCl, 10 HEPES, pH 7.6 (with KOH). […]

TRPV3-5PM = biological target: T1, TRPV3-5PM (Mus musculus, UniProt Q8K424, A606V/F625L/F656I/F666Y/V587L); assay type: cell-based
T1 construct: expressed in transfected cells; host or cells: Xenopus laevis oocytes
T1 sequence (Q8K424 1-791 V587L/A606V/F625L/F656I/F666Y): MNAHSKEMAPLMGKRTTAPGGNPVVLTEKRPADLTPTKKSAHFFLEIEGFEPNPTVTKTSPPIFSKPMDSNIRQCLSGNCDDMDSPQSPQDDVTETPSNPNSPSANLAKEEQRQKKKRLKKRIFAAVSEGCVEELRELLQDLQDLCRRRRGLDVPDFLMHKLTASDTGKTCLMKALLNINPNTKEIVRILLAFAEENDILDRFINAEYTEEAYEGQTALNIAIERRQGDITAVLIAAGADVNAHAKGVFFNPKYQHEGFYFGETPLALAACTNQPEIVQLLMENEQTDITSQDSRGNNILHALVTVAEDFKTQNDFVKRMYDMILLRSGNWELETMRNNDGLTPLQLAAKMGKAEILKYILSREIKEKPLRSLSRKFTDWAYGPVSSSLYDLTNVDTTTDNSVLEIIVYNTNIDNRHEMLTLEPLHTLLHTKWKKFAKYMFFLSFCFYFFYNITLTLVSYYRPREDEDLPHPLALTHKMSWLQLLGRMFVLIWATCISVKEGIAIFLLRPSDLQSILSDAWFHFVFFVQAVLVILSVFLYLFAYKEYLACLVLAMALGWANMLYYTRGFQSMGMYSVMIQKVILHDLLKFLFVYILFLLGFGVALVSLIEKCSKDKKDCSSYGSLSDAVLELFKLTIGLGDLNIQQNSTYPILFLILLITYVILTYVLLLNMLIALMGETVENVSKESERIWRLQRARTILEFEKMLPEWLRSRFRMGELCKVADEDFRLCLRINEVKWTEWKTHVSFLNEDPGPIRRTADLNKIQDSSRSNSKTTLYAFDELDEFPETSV
Method: All channel constructs were expressed in Xenopus laevis oocytes and studied using the two-electrode voltage clamp technique (TEVC) following 1–4 days of incubation after cRNA injection. The animal care and experimental procedures were performed in accordance with the Guide for the Care and Use of Laboratory Animals and were approved by the Animal Care and Use Committee of the National Institute of Neurological Disorders and Stroke (Animal protocol number 1253–17). Oocytes were removed surgically and incubated with agitation for 1 hr in a solution containing (in mM) 82.5 NaCl, 2.5 KCl, 1 MgCl2, 5 HEPES, pH 7.6 (with NaOH), and collagenase (2 mg/ml; Worthington Biochemical, Lakewood, NJ). Defolliculated oocytes were injected with cRNA for each of the constructs and incubated at 17°C in a solution containing (in mM) 96 NaCl, 2 KCl, 1 MgCl2, 1.8 CaCl2, 5 HEPES, pH 7.6 (with NaOH), and gentamicin (50 μg/ml, GIBCO-BRL, Gaithersburg, MD). Oocyte membrane voltage was controlled using an OC-725C oocyte clamp (Warner Instruments, Hamden, CT). Data were filtered at 1–3 kHz and digitized at 20 kHz using pClamp software (Molecular Devices, Sunnyvale, CA) and a Digidata 1440A digitizer (Axon Instruments). Microelectrode resistances were 0.1–1 MΩ when filled with 3 M KCl. For recording TRP channel currents, the external recording solution contained (in mM) 100 KCl, 10 HEPES, pH 7.6 (with KOH). Experiments were performed at room temperature (~22°C), except as indicated otherwise. […] Current time courses were obtained by stepping membrane voltage every 2 s from a holding potential of 0 mV to either −60 or +60 mV for 100 ms, and plotting the mean steady-state current at the end of each voltage step as a function of total recording time. I-V relations were obtained similarly, but voltage was stepped every 2 s to a different value, in 10 mV increments and starting at −60 mV.

[2] = system: TRPV3-6M + I595L, K611D, L635F, L639M or Y650F; assay: Two-electrode voltage clamp, TRPV3-6M with individual pore mutations (weak RTx responders); assay type: cell-based, mouse; details: RTx 100 nM, room temperature; smaller than responses to 2-APB
Method: as §1

## NCCOB(c1ccccc1)c1ccccc1 [2-APB, 2-aminoethoxydiphenyl borate]
[1]
  channel activation (current response): strong responses
TRPV3-4M/V2P
  channel activation (current response): could be activated
TRPV3-5PM
  increase in the apparent affinity for 2-APB: 20 fold and > 20 fold and ~ 20 fold
  s (slope) of Hill fit, 2-APB concentration-response: 1.32
TRPV3-5PM; read-out: apparent affinity (EC50) for activation by 2-APB
  EC50: 19 ± 2 µM

## C=C(C)[C@]12C[C@@H](C)[C@@]34O[C@](Cc5ccccc5)(O[C@@H]1[C@@H]3C=C(COC(=O)Cc1ccc(O)c(OC)c1)C[C@]1(O)C(=O)C(C)=C[C@@H]41)O2 [RTx, resiniferatoxin]
[2]
  channel activation (current response): detectable responses
